Laboratory results from paper PMC11277489, “Novel Piperazine Derivatives of Vindoline as Anticancer Agents” (International Journal of Molecular Sciences, 2024).
Like-named read-outs stand apart in the source and are kept apart here.

Legend:
Type in all cases: cell-based
MDA-MB231ATCC = test: NCI60 five-dose screen, Breast Cancer; conditions: Homo sapiens, MDA-MB-231
MDA-MB-435 = test: NCI60 five-dose screen, Melanoma; conditions: Homo sapiens
KM12 = test: NCI60 five-dose screen, Colon Cancer; conditions: Homo sapiens
SW-620 = test: NCI60 five-dose screen, Colon Cancer; conditions: Homo sapiens
BT-549 = test: NCI60 five-dose screen, Breast Cancer; conditions: Homo sapiens
DU-145 = test: NCI60 five-dose screen, Prostate Cancer; conditions: Homo sapiens
SN12C = test: NCI60 five-dose screen, Renal Cancer; conditions: Homo sapiens
CAKI-1 = test: NCI60 five-dose screen, Renal Cancer; conditions: Homo sapiens
UACC-62 = test: NCI60 five-dose screen, Melanoma; conditions: Homo sapiens
SK-MEL-28 = test: NCI60 five-dose screen, Melanoma; conditions: Homo sapiens
CCRF-CEM = test: NCI60 five-dose screen, Leukemia; conditions: Homo sapiens
T-47D = test: NCI60 five-dose screen, Breast Cancer; conditions: Homo sapiens, T47D
SK-MEL-2 = test: NCI60 five-dose screen, Melanoma; conditions: Homo sapiens
NCI/ADR-RES = test: NCI60 five-dose screen, Ovarian Cancer; conditions: Homo sapiens
COLO 205 = test: NCI60 five-dose screen, Colon Cancer; conditions: Homo sapiens
K-562 = test: NCI60 five-dose screen, Leukemia; conditions: Homo sapiens, K562
HOP-92 = test: NCI60 five-dose screen, Non-small Cell Lung Cancer; conditions: Homo sapiens
[1] = tested on: 60 human tumor cell lines (NCI60); test: NCI60 five-dose screen, whole panel and sub-panel means
SNB-75 = test: NCI60 five-dose screen, CNS Cancer; conditions: Homo sapiens
IGROV1 = test: NCI60 five-dose screen, Ovarian Cancer; conditions: Homo sapiens, IGROV-1
SR = test: NCI60 five-dose screen, Leukemia; conditions: Homo sapiens
MALME-3M = test: NCI60 five-dose screen, Melanoma; conditions: Homo sapiens
NCI-H460 = test: NCI60 five-dose screen, Non-small Cell Lung Cancer; conditions: Homo sapiens
OVCAR-4 = test: NCI60 five-dose screen, Ovarian Cancer; conditions: Homo sapiens
HS 578T = test: NCI60 five-dose screen, Breast Cancer; conditions: Homo sapiens
PC-3 = test: NCI60 five-dose screen, Prostate Cancer; conditions: Homo sapiens
OVCAR-3 = test: NCI60 five-dose screen, Ovarian Cancer; conditions: Homo sapiens
ACHN = test: NCI60 five-dose screen, Renal Cancer; conditions: Homo sapiens
SNB-19 = test: NCI60 five-dose screen, CNS Cancer; conditions: Homo sapiens
UO-31 = test: NCI60 five-dose screen, Renal Cancer; conditions: Homo sapiens
NCI-H226 = test: NCI60 five-dose screen, Non-small Cell Lung Cancer; conditions: Homo sapiens
NCI-H322M = test: NCI60 five-dose screen, Non-small Cell Lung Cancer; conditions: Homo sapiens
HCT-116 = test: NCI60 five-dose screen, Colon Cancer; conditions: Homo sapiens
TK-10 = test: NCI60 five-dose screen, Renal Cancer; conditions: Homo sapiens
[2] = Renal Cancer, five-dose screen, read-out: GI50
[3] = Leukemia, five-dose screen, read-out: GI50

CC[C@]12C=CCN3CC[C@@]4(c5ccc(OC)cc5N(C)[C@H]4[C@@](O)(C(=O)OC)[C@@H]1OC(=O)CCCN1CCN(C(c4ccc(F)cc4)c4ccc(F)cc4)CC1)[C@@H]32 [Compound 25]
GI50 (MDA-MB231ATCC): 1580 nM
GI50 (MDA-MB-435; MDA-MB-435): 1660 nM
GI50 (KM12; KM12): 1780 nM
GI50 (SW-620; SW-620): 1620 nM
GI50 (BT-549; BT-549): 1780 nM
GI50 (DU-145; DU-145): 1780 nM
GI50 (SN12C): 1660 nM
GI50 (CAKI-1; CAKI-1): 1480 nM
GI50 (UACC-62; UACC-62): 1780 nM
GI50 (SK-MEL-28; SK-MEL-28): 1740 nM
GI50 (CCRF-CEM): 2040 nM
GI50 (T-47D): 1660 nM
GI50 (SK-MEL-2; SK-MEL-2): 2400 nM
GI50 (NCI/ADR-RES): 1740 nM
GI50 (COLO 205; COLO 205): 1660 nM
GI50 (K-562): 1910 nM
GI50 (HOP-92; HOP-92): 1350 nM
GI50 ([1]; Homo sapiens, 60 cell, read-out: GI50 Mean, mean over all 60 cell lines): 1850 nM
GI50 ([1]; Homo sapiens, on almost all cell lines, five-dose screen): < 2000 nM
GI50 ([1]; Homo sapiens, read-out: GI50 Mean, mean over Breast Cancer panel): 1670 nM
GI50 ([1]; Homo sapiens, read-out: GI50 Mean, mean over CNS Cancer panel): 2210 nM
GI50 ([1]; Homo sapiens, read-out: GI50 Mean, mean over Colon Cancer panel): 1730 nM
GI50 ([1]; Homo sapiens, read-out: GI50 Mean, mean over Leukemia panel): 1760 nM
GI50 ([1]; Homo sapiens, read-out: GI50 Mean, mean over Melanoma panel): 1780 nM
GI50 ([1]; Homo sapiens, read-out: GI50 Mean, mean over Non-small Cell Lung Cancer panel): 1850 nM
GI50 ([1]; Homo sapiens, read-out: GI50 Mean, mean over Ovarian Cancer panel): 1730 nM
GI50 ([1]; Homo sapiens, read-out: GI50 Mean, mean over Prostate Cancer panel): 1650 nM
GI50 ([1]; Homo sapiens, read-out: GI50 Mean, mean over Renal Cancer panel): 2180 nM
GI50 (SNB-75; SNB-75): 5010 nM
GI50 (IGROV1): 1380 nM
GI50 (SR): 1700 nM
GI50 (MALME-3M; Malme-3M): 1510 nM
GI50 (NCI-H460; NCI-H460): 1780 nM
GI50 (OVCAR-4; OVCAR-4): 1950 nM
GI50 (HS 578T; Hs-578T): 1780 nM
GI50 (PC-3; PC-3): 1510 nM
GI50 (OVCAR-3; OVCAR-3): 1740 nM
GI50 (ACHN): 2090 nM
GI50 (SNB-19; SNB-19): 1660 nM
GI50 (UO-31; UO-31): 1660 nM
GI50 (NCI-H226; NCI-H226): 2040 nM
GI50 (NCI-H322M): 1950 nM
GI50 (HCT-116; HCT-116): 1780 nM
GI50 (TK-10; TK-10): 1510 nM

CC[C@]12C=CCN3CC[C@@]4(c5ccc(OC)cc5N(C)[C@H]4[C@@](O)(C(=O)OC)[C@@H]1OC(=O)CCC(=O)N1CCN(c4ccc(C(F)(F)F)cc4)CC1)[C@@H]32 [Compound 28]
GI50 (MDA-MB231ATCC; MDA-MB231ATCC, Breast Cancer, five-dose screen, read-out: GI50): 4170 nM
GI50 (MDA-MB-435; MDA-MB-435, Melanoma, five-dose screen, read-out: GI50): 3890 nM
GI50 (KM12; KM12, Colon Cancer, five-dose screen, read-out: GI50): 4790 nM
GI50 (SW-620; SW-620, Colon Cancer, five-dose screen, read-out: GI50): 3980 nM
GI50 (BT-549; BT-549, Breast Cancer, five-dose screen, read-out: GI50): 3310 nM
GI50 (DU-145; DU-145, Prostate Cancer, five-dose screen, read-out: GI50): 5250 nM
GI50 (SN12C; [2]): 4170 nM
GI50 (CAKI-1; CAKI-1, Renal Cancer, five-dose screen, read-out: GI50): 2000 nM
GI50 (UACC-62; UACC-62, Melanoma, five-dose screen, read-out: GI50): 2880 nM
GI50 (SK-MEL-28; SK-MEL-28, Melanoma, five-dose screen, read-out: GI50): 5010 nM
GI50 (CCRF-CEM; [3]): 1660 nM
GI50 (T-47D; T-47D, Breast Cancer, five-dose screen, read-out: GI50): 3550 nM
GI50 (SK-MEL-2; SK-MEL-2, Melanoma, five-dose screen, read-out: GI50): 2750 nM
GI50 (NCI/ADR-RES; Ovarian Cancer, five-dose screen, read-out: GI50): 3310 nM
GI50 (COLO 205; COLO 205, Colon Cancer, five-dose screen, read-out: GI50): 1910 nM
GI50 (K-562; K-562, Leukemia, five-dose screen, read-out: GI50): 1700 nM
GI50 (HOP-92; HOP-92, Non-small Cell Lung Cancer, five-dose screen, read-out: GI50): 2090 nM
GI50 ([1]; Homo sapiens, 60 cell, mean over all 60 cell lines, read-out: GI50 Mean): < 4000 nM
GI50 ([1]; Homo sapiens, mean over Breast Cancer panel, read-out: GI50 Mean): 3440 nM
GI50 ([1]; Homo sapiens, mean over CNS Cancer panel, read-out: GI50 Mean): 3690 nM
GI50 ([1]; Homo sapiens, mean over Colon Cancer panel, read-out: GI50 Mean): 3160 nM
GI50 ([1]; Homo sapiens, mean over Leukemia panel, read-out: GI50 Mean): 1810 nM
GI50 ([1]; Homo sapiens, mean over Melanoma panel, read-out: GI50 Mean): 3630 nM
GI50 ([1]; Homo sapiens, mean over Non-small Cell Lung Cancer panel, read-out: GI50 Mean): 4230 nM
GI50 ([1]; Homo sapiens, mean over Ovarian Cancer panel, read-out: GI50 Mean): 3920 nM
GI50 ([1]; Homo sapiens, mean over Prostate Cancer panel, read-out: GI50 Mean): 3850 nM
GI50 ([1]; Homo sapiens, mean over Renal Cancer panel, read-out: GI50 Mean): 3670 nM
GI50 ([1]; mean over all 60 cell lines, read-out: GI50 Mean): 3550 nM
GI50 (SNB-75; SNB-75, CNS Cancer, five-dose screen, read-out: GI50): 2000 nM
GI50 (IGROV1; IGROV1, Ovarian Cancer, five-dose screen, read-out: GI50): 3310 nM
GI50 (SR; [3]): 2290 nM
GI50 (MALME-3M; MALME-3M, Melanoma, five-dose screen, read-out: GI50): 5370 nM
GI50 (NCI-H460; NCI-H460, Non-small Cell Lung Cancer, five-dose screen, read-out: GI50): 3310 nM
GI50 (OVCAR-4; OVCAR-4, Ovarian Cancer, five-dose screen, read-out: GI50): 4270 nM
GI50 (HS 578T; HS 578T, Breast Cancer, five-dose screen, read-out: GI50): 4790 nM
GI50 (PC-3; PC-3, Prostate Cancer, five-dose screen, read-out: GI50): 2450 nM
GI50 (OVCAR-3; OVCAR-3, Ovarian Cancer, five-dose screen, read-out: GI50): 3720 nM
GI50 (ACHN; [2]): 3800 nM
GI50 (SNB-19; SNB-19, CNS Cancer, five-dose screen, read-out: GI50): 4370 nM
GI50 (UO-31; UO-31, Renal Cancer, five-dose screen, read-out: GI50): 2290 nM
GI50 (NCI-H226; NCI-H226, Non-small Cell Lung Cancer, five-dose screen, read-out: GI50): 3160 nM
GI50 (NCI-H322M; Non-small Cell Lung Cancer, five-dose screen, read-out: GI50): 10000 nM
GI50 (HCT-116; HCT-116, Colon Cancer, five-dose screen, read-out: GI50): 3310 nM
GI50 (TK-10; TK-10, Renal Cancer, five-dose screen, read-out: GI50): 4070 nM
